# Experimental data: PubChem BioAssay AID652218 (The Scripps Research Institute Molecular Screening Center, 2013)
# Calls of active or inactive are those of the source.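 How the source made its calls: active means inhibition of the phosphatase PP1 of at least 70% at 50 µM; inactive means the rest.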
# Biological target: Serine/threonine-protein phosphatase PP1-alpha catalytic subunit (Homo sapiens) (UniProt P62136)
# Experiment: single-dose PP1alpha phosphatase inhibition – biochemical, fluorescence, OMFP substrate, powder samples, set 2, confirmation (AID 652218)
# Conditions: purified PP1alpha, OMFP dephosphorylation fluorescence; at 50 µM; stronger effect = higher value
# Serine/threonine-protein phosphatase PP1-alpha catalytic subunit (Homo sapiens), sequence (P62136 whole entry, looked up): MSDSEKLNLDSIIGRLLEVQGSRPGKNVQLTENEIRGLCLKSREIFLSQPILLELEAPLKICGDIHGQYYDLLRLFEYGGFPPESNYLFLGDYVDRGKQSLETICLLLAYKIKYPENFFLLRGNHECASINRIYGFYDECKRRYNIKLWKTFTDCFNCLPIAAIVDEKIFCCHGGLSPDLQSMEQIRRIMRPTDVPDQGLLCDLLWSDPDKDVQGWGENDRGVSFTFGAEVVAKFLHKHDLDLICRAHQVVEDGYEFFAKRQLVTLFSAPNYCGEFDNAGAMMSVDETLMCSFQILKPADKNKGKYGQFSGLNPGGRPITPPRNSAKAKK
row,SMILES,inhibition
1,CN1CCN(C(c2nccs2)c2cc(Cl)c3cccnc3c2O)CC1 (stereo unspecified),103%
2,CN1CCN(Cc2cc(Cl)c3cccnc3c2O)CC1,73.1%
3,Oc1c(C(NC2CCCCC2)c2ccccn2)ccc2cccnc12 (stereo unspecified),106%
4,CN1CCN(C(c2ccccn2)c2cc(Cl)ccc2O)CC1 (stereo unspecified),6.19% (inactive)
5,Cc1ccnc(C(c2ccc3cccnc3c2O)N2CCN(C)CC2)c1 (stereo unspecified),104%
6,CN1CCC(NC(c2ccccn2)c2ccc3cccnc3c2O)CC1 (stereo unspecified),97.3%
7,COc1ccc(C(c2ccc3cccnc3c2O)N2CCN(C)CC2)nc1 (stereo unspecified),97.9%
8,CN1CCN(C(c2ccc(C(F)(F)F)cn2)c2ccc3cccnc3c2O)CC1 (stereo unspecified),99.8%
9,Cc1cccc(C(c2ccc3cccnc3c2O)N2CCN(C)CC2)n1 (stereo unspecified),103%
10,CN1CCN(C(c2ncccn2)c2ccc3cccnc3c2O)CC1 (stereo unspecified),93.8%
11,COc1cccc(C(c2ccc3cccnc3c2O)N2CCN(C)CC2)n1 (stereo unspecified),107%
12,Cc1cccnc1C(c1ccc2cccnc2c1O)N1CCN(C)CC1 (stereo unspecified),99.9%
13,Cc1ccc(C(c2ccc3cccnc3c2O)N2CCN(C)CC2)nc1 (stereo unspecified),104%
14,Oc1c(CN2CCN(c3ccccc3)CC2)cc(Cl)c2cccnc12,100%
15,CN1CCN(C(c2cccs2)c2cc(Cl)c3cccnc3c2O)CC1 (stereo unspecified),88.6%
16,Oc1c(C(c2ccccn2)N2CCCC2)ccc2cccnc12 (stereo unspecified),107%
17,Oc1c(Cc2ccccn2)ccc2cccnc12,102%
18,Cc1ccc2ccc(C(c3ccccn3)N3CCN(C)CC3)c(O)c2n1 (stereo unspecified),101%
19,COCOc1c(C(c2ccccn2)N2CCN(C)CC2)ccc2cccnc12 (stereo unspecified),66.1% (inactive)
20,CN1CCN(C(c2ccc3cccnc3c2O)c2ncccc2C(F)(F)F)CC1 (stereo unspecified),102%
21,Oc1c(C(c2ccccn2)N2CCC(Cc3ccccc3)CC2)cc(Cl)c2cccnc12 (stereo unspecified),89.3%
22,COc1ccnc(C(c2ccc3cccnc3c2O)N2CCN(C)CC2)c1 (stereo unspecified),104%

# Further lines, results first:
row,inhibition,SMILES
1,101%,Oc1c(C(c2ccccn2)N2CCN(c3ccccc3F)CC2)cc(Cl)c2cccnc12 (stereo unspecified)
2,83.5%,Oc1c(C(c2ccccn2)N2CCNCC2)cc(Cl)c2cccnc12 (stereo unspecified)
3,102%,Oc1c(CN2CCN(c3ccccn3)CC2)cc(Cl)c2cccnc12
4,40% (inactive),CN1CCN(C(c2cccnc2)c2cc(Cl)c3cccnc3c2O)CC1 (stereo unspecified)
5,100%,CN1CCN(C(c2ccccn2)c2ccc3cccnc3c2O)CC1 (stereo unspecified)
6,90.5%,CC(C)(C)OC(=O)N1CCN(C(c2ccccn2)c2cc(Cl)c3cccnc3c2O)CC1 (stereo unspecified)
7,98.4%,CCN1CCN(C(c2ccccn2)c2cc(Cl)c3cccnc3c2O)CC1 (stereo unspecified)
8,98.4%,CN1CCN(C(c2ccccn2)c2cc(Cl)c3cccnc3c2O)CC1 (stereo unspecified)
9,79.1%,CN1CCN(C(c2ccccc2)c2cc(Cl)c3cccnc3c2O)CC1 (stereo unspecified)
10,105%,Oc1c(C(c2ccccn2)N2CCOCC2)cc(Cl)c2cccnc12 (stereo unspecified)
11,27.2% (inactive),CN1CCN(C(c2ccccn2)c2cc(Cl)c3ccccc3c2O)CC1 (stereo unspecified)
12,45% (inactive),CN1CCN(C(c2ccncc2)c2cc(Cl)c3cccnc3c2O)CC1 (stereo unspecified)
13,104%,CC1CCN(C(c2ccccn2)c2cc(Cl)c3cccnc3c2O)CC1 (stereo unspecified)
14,99%,CCOC(c1ccccn1)c1cc(Cl)c2cccnc2c1O (stereo unspecified)
